From patent publication US8865741B2, “Aminoindane compounds and use thereof in treating pain” (Asana Biosciences, LLC, priority 2011, dated 2014)
Where two headings read alike, the source gives them in different places.

What was measured:
[1] = tested on: sodium channel in hTRPV1-N1E115 cells; assay: FLIPR membrane potential assay of sodium channel response in hTRPV1-N1E115 cells, with (47° C.) or without (25° C.) heat activation of hTRPV1; format: cell-based; details: for hTRPV1-N1E Nav (% inhibition) 25° C., tested at 0.5 mM / hTRPV1-N1E Nav (% inhibition) 47° C., tested at 0.5 mM: 0.5 mM (stated in cell, column head 0.1 mM); for hTRPV1-N1E Nav (% inhibition) 47° C., tested at 0.5 mM / IC50: 47° C.; for IC50: read-out: hTRPV1-N1E IC50 (μM) 47° C.; for hTRPV1-N1E Nav 0.1 mM (% inhibition) 25° C. / hTRPV1-N1E Nav 1 mM (% inhibition) 25° C.: 25° C. (no heat activation of hTRPV1); for hTRPV1-N1E Nav 0.1 mM (% inhibition) 47° C. / hTRPV1-N1E Nav 1 mM (% inhibition) 47° C.: 47° C. (heat activation of hTRPV1)
Description: In one embodiment, a modified FLIPR® (Fluorometric Imaging Plate Reader) based assay system was developed which is capable of discriminating between non-specific versus hTRPV1-mediated entry of test compounds. Advantageously, the assay system utilizes heat activated opening of hTRPV1 channels followed by an assessment of internal sodium channel block. The assay allows a permanently charged compound to selectively enter through opened hTRPV1 channels and that compound's potency in inhibiting sodium channels from the cytoplasm side of the same cell can be assessed and quantified.
The assay is readily performed in multi-well assay plates into which cells in growth media are added and incubated under conditions which permit the formation of a confluent monolayer over a period of hours prior to the start of the assay. Conventional culture media and conditions may be utilized. Duplicate cell assay plates are prepared for each experiment.
The spent media from the cell seeded plates is removed on the day of the assay and replaced with Membrane potential Dye-Blue (Molecular Devices). The dye was prepared in assay buffer following manufacturer's instructions. The dye-loaded plate is incubated at room temperature (about 25° C.) for about 30 minutes in order to pre-load the cells with dye. Optionally, the cells may be loaded with the dye simultaneously with adding the test compounds.
The test compounds are diluted in the Assay Buffer and added to each well of a specific 384-well ‘compound plate’, which serves as a source plate for compound addition using the FLIPR® platform. The concentration of compounds in the compound-plate was adjusted to achieve the desired final concentration when added to the cells in the ‘cell-plate’. After completion of the dye incubation period, the dye loaded cell-plates and the compound source plates are inserted into the FLIPR® Tetra™ device with a 384 FLIPR® tip box (Molecular Devices, Inc.) according to manufacturer's instructions. The compounds are robotically added to the dye loaded cell-plates using software integral to the FLIPR® Tetra™ instrument.
Immediately following compound addition, hTRPV1 is activated, in one of the duplicate cell plates, by heating. Specifically, entire multi-well plate containing the compound-cells mixture is incubated at 47° C. for 10 minutes, after which they are returned to room temperature (about 25° C.) for a further 30 minutes. Heat activation of hTRPV1 was omitted from the replicate cell plate which was simply maintained at room temperature for the entire 40 minutes.
A membrane potential response is elicited in the dye- and compound-loaded cells by the addition of veratridine which is a known sodium channel ‘agonist’. As illustrated in an example herein, an agonist plate containing veratridine (Sigma) is prepared in advance and is inserted into suitable devices such as, e.g., the FLIPR® TETRA® device for a “2nd addition” as instructed by the manufacturer. The concentration of veratridine in the ‘agonist plate’ was adjusted to achieve a final concentration of 100 μM when added to the cells in the cell-plate. Final concentrations of veratridine greater or lesser than 100 μM may also be used but the signal measured by the FLIPR®^Tetra™ device or another suitable device may vary accordingly.
The exposure of the cells in the cell-plate to veratridine induces sodium channels in the cells to open and the resulting ion flux produces a membrane potential depolarization that is detected as a fluorescence signal by the FLIPR® ^Tetra™ Device. The activity of test compounds is determined by their ability to attenuate the veratridine-induced fluorescence signal, the most promising compounds are those that show an enhanced activity in the heat-activated cell plate over the non-heat-activated cell plate. […]

[2] = target: T1, human Nav1.5 sodium channel (Homo sapiens, UniProt Q14524); assay: Inhibition of sodium channel response in hNav1.5-HEK293 cells (FLIPR, veratridine); format: cell-based; details: for IC50: average, read-out: HEK Nav 1.5 IC50 (μM) (AVG); for inhibition at 10 min, 0.5 mM / inhibition at 10 min, 1.5 mM: human, HEK-293 cells expressing human Nav1.5 (hNav1.5-HEK-293), pH 7.4; for inhibition at 10 min, 0.5 mM: read-out: HEK Nav 1.5 % inh. @ 0.5 mM; for inhibition at 10 min, 1.5 mM: read-out: HEK Nav 1.5 % inh. @ 1.5 mM
T1 construct: host or cells: HEK-293
Experimental: C. Method for Assessing the Extent of Inhibition of Sodium Channel Response with Compounds in hNav1.5-HEK293 Cells.
The following assay was used to assess the tendency of the test compounds to block the dominant cardiac sodium channel isoform. Nav1.5 sodium channels are known to be permeable to quaternary sodium channel blockers such as QX-314 and, thus, the assay was performed in the absence of a chemical TRPV1 agonist.
The hNav1.5-HEK-293 cells (CreaCell, France, a human embryonic kidney cell line expressing the human Nav1.5 sodium channel) were cultured in Growth medium (containing 1×DMEM (Gibco)+10% FBS (PAA Gold)+2% Glutamine 100 mM (Gibco)+1% penicillin 10,000 U/mL streptomycin 10,000 μg/mL (Invitrogen)+1.2 mg/mL Geneticin G418 (Invitrogen)) in […] cell bind flasks (Corning). The following steps were followed exactly as mentioned. The spent medium was discarded and the cells rinsed once with PBS-1×. Accutase® (1-2 mL; PAA) solution was added. The plate was placed on a 37° C. warming incubator 3-5 minutes. As soon as cells are detached, 37° C. complete medium (9 mL) was added. The cell suspension was drawn into a sterile pipette and cells homogenized gently to dissociate cell aggregates. The cells were counted using a hemocytometer with Blue Trypan and then centrifuged 5 minutes at 400 g. The cells can be amplified or maintained by seeding […] in a T75 flask (final volume: 15 mL). 8000 cells in 50 μL Growth medium was added to each well of 384-well, clear bottomed, sterile poly-D-lysine coated plates with lid (Greiner-bio one) inside the laminar air-flow. The plates were incubated at 37° C. and 5% CO2 in a CO2 incubator (Thermo) for 48 hours.
On the day of the assay, cells were washed with Assay buffer, which was prepared using the components and amounts in Table 4. The pH was adjusted to 7.4 with NaOH, volume made up to 500 mL with Milli-Q® water.
Assay Buffer was added to the cells and incubated at rt (25° C.) for 10 minutes. The compounds were diluted in assay buffer. The compounds were added and incubated at rt (25° C.) for 10 minutes. Red FMP Dye (MDC) was added to the cells and the plate was incubated at rt (25° C.) for 30 minutes. Veratridine stock (20 mM; Sigma) was prepared in DMSO; veratridine (final concentration of 30 μM) in assay buffer was added to each well of the cell seeded plates in the FLIPR® system and read taken for 10 minutes. Table 5 provides data illustrating the sodium channel activity of the test compounds in response to the presence or absence of heat stimulation in cells expressing hTRPV1. The compounds were tested for differential activity at 25° C. and 47° C. and at two test concentrations. Compounds showing the most promising profiles were further evaluated for IC50 in the 47° C. assay, examples are shown in Table 5.

[3] = tested on: Male Sprague Dawley (SD) rats; assay: In vivo assay of mechanical nociception (rat pinch model, perisciatic injection); details: for Average Time of Analgesia: perisciatic; for duration of anti-nociception effect: 100 μL injection volume, 0.5% compound with 2% lidocaine (Table 8)
[4] = test compound 0.5%, lidocaine 2%, total injection 100 μL
[5] = test compound 0.5%, lidocaine 0%, total injection 100 μL
[6] = test compound 0.5%, lidocaine 0%, total injection 200 μL
[7] = test compound 0.5%, lidocaine 2%, total injection 200 μL

T1 sequence (Q14524 whole entry): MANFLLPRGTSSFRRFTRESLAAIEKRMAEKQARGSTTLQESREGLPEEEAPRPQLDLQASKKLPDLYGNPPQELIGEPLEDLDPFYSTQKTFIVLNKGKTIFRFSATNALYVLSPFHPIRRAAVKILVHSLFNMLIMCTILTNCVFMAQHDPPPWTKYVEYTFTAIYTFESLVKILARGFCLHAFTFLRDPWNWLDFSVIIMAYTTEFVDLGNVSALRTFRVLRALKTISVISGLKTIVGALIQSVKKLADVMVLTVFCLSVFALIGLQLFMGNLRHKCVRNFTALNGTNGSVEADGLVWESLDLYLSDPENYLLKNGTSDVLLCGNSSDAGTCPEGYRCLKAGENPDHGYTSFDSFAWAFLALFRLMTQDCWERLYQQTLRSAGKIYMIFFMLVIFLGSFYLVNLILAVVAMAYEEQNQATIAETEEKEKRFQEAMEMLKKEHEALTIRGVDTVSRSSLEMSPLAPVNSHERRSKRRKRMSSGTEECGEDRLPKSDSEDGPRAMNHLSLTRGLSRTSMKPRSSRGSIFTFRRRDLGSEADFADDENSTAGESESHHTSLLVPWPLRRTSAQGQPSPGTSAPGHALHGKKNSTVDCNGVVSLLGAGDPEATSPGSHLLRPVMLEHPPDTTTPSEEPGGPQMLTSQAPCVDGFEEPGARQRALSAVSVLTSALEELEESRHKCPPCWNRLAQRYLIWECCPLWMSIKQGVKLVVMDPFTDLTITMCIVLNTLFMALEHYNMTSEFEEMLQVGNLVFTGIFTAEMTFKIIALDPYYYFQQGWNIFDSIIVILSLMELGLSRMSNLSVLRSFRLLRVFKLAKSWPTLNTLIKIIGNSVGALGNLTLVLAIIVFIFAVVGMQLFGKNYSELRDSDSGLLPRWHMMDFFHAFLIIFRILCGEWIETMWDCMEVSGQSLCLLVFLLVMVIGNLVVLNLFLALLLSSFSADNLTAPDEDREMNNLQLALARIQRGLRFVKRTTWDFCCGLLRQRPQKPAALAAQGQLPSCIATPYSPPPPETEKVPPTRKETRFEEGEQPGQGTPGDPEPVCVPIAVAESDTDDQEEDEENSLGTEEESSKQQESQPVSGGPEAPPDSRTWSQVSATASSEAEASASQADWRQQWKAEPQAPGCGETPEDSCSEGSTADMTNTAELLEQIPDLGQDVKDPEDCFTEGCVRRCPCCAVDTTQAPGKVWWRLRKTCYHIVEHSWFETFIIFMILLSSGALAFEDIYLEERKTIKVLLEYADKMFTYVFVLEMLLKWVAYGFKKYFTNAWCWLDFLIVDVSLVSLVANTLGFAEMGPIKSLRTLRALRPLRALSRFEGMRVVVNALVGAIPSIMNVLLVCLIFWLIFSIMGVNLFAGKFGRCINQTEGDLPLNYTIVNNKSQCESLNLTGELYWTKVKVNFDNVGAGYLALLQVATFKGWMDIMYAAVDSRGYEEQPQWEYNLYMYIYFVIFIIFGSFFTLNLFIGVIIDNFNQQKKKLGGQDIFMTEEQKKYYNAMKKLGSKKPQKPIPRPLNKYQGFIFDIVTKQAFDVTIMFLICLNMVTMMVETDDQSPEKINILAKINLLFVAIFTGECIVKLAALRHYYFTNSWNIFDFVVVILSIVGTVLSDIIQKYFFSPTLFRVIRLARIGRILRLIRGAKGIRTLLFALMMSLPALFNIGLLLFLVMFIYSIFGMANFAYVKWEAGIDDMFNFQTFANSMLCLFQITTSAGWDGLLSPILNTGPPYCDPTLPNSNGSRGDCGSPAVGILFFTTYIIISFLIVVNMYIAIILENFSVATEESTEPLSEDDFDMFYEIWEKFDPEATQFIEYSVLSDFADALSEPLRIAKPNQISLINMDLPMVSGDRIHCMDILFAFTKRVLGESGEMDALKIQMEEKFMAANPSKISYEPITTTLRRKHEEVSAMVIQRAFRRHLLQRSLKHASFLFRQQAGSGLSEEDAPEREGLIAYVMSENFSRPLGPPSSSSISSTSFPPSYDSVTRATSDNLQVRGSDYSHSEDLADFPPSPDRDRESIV

IC50 ([1]; class symbols) [µM] | IC50 ([1]; numeric values) [µM] | Compound | hTRPV1-N1E Nav (% inhibition) 25° C., tested at 0.5 mM [1] [%] | hTRPV1-N1E Nav (% inhibition) 47° C., tested at 0.5 mM [1] | IC50 [2] [µM] | inhibition at 10 min, 0.5 mM [2] [%] | inhibition at 10 min, 1.5 mM [2] [%] | Average Time of Analgesia [3, 4] [h] | hTRPV1-N1E Nav 0.1 mM (% inhibition) 25° C. [1] [%] | hTRPV1-N1E Nav 0.1 mM (% inhibition) 47° C. [1] | hTRPV1-N1E Nav 1 mM (% inhibition) 25° C. [1] | hTRPV1-N1E Nav 1 mM (% inhibition) 47° C. [1] | duration of anti-nociception effect [3] | Average Time of Analgesia [3, 5] [h] | Average Time of Analgesia [3, 6] [h] | Average Time of Analgesia [3, 7] [h] | analgesic effects in the absence of lidocaine ([3]; absence of lidocaine) | Average Time of Analgesia ([3]; test compound 0.25%, lidocaine 0%, total injection 200 μL) [h] | Average Time of Analgesia ([3]; test compound 0.25%, lidocaine 1%, total injection 200 μL) [h]
10 to 100 |  | C[N+]1(C)CCCC[C@H]1CCN(c1ccccc1)C1Cc2ccccc2C1.[I-] [Example 9, (S)-1,1-Dimethyl-2-[2-((indan-2-yl)(phenyl)amino)ethyl]piperidinium iodide] | 16 | 77 (N = 2, 0.5 mM) % | 647 | 72.4 | 97.2 | 5 |  |  |  |  |  |  |  |  |  |  | 
10 to 100 |  | C[N+]1(C)CCCC[C@@H]1CCN(c1ccccc1)C1Cc2ccccc2C1.[I-] [Example 10, (R)-1,1-Dimethyl-2-[2-((indan-2-yl)(phenyl)amino)ethyl]piperidinium iodide] | 24 | 91 (N = 2, 0.5 mM) % | 667 | 76.1 | 97.6 |  |  |  | 6.5 (N = 2) % |  |  |  |  |  |  |  | 
 | 37 | C[N+]1(C)CCCCC1CN(c1ccccc1)C1Cc2ccccc2C1.[I-] (stereo not shown) [Example 3, 1,1-dimethyl-2-[((indan-2-yl)(phenyl)amino)methyl]piperidinium iodide] |  |  | 190 | 77.6 | 99.1 | 12 | 16 | 67 (N = 2) % | 23 (N = 2) % | 60 (N = 2) % |  | 4 | 9 | >15 | analgesic effects of significant duration |  | 
1 to 10 |  | Cc1ccccc1N(CCC1CCCC[N+]1(C)C)C1Cc2ccccc2C1.[I-] (stereo not shown) [Example 24, 1,1-dimethyl-2-[2-((indan-2-yl)(2-methylphenyl)amino)ethyl]piperidinium iodide] |  |  |  |  |  | 32 | 25.1 | 88.5 (N = 2) % | 57.9 (N = 2) % | 84.2 (N = 2) % | up to 32 hours |  | 12 | >168 |  | 4 | 24
1 to 10 |  | CC[N+]1(CC)CCCCC1CCN(c1ccc(C)cc1)C1Cc2ccccc2C1.[I-] (stereo not shown) [Example 23, 1,1-Diethyl-2-[2-((indan-2-yl)(4-methylphenyl)amino)ethyl]piperidinium iodide] |  |  |  |  |  | 2 | 19.7 | 89.6 (N = 2) % | Insoluble | Insoluble |  |  |  |  |  |  | 

More lines, now with the values behind:

Compound | IC50 ([1]; class symbols) [µM] | IC50 ([1]; numeric values) [µM] | hTRPV1-N1E Nav (% inhibition) 25° C., tested at 0.5 mM [1] [%] | hTRPV1-N1E Nav (% inhibition) 47° C., tested at 0.5 mM [1] | IC50 [2] [µM] | inhibition at 10 min, 0.5 mM [2] [%] | inhibition at 10 min, 1.5 mM [2] [%] | Average Time of Analgesia [3, 4] [h] | hTRPV1-N1E Nav 0.1 mM (% inhibition) 25° C. [1] [%] | hTRPV1-N1E Nav 0.1 mM (% inhibition) 47° C. [1] | hTRPV1-N1E Nav 1 mM (% inhibition) 25° C. [1] | hTRPV1-N1E Nav 1 mM (% inhibition) 47° C. [1] | duration of anti-nociception effect [3] | Average Time of Analgesia [3, 5] [h] | Average Time of Analgesia [3, 6] [h] | Average Time of Analgesia [3, 7] [h] | analgesic effects in the absence of lidocaine ([3]; absence of lidocaine) | Average Time of Analgesia ([3]; test compound 0.25%, lidocaine 0%, total injection 200 μL) [h] | Average Time of Analgesia ([3]; test compound 0.25%, lidocaine 1%, total injection 200 μL) [h]
CC[N+]1(CC)CCCCC1CCN(c1ccccc1F)C1Cc2ccccc2C1.[I-] (stereo not shown) [Example 16, 1,1-Diethyl-2-[2-((2-fluorophenyl)(indan-2-yl)amino)ethyl]piperidinium iodide] | 10 to 100 |  |  |  |  |  |  | 6 | 0 | 92.9 (N = 2) % | Insoluble | Insoluble | up to 6 hours |  |  |  |  |  | 
CC[N+]1(CC)CCCC[C@H]1CCN(c1ccccc1)C1Cc2ccccc2C1.[I-] [Example 2, (S)-1,1-diethyl-2-[2-((indan-2-yl)(phenyl)amino)ethyl]piperidinium iodide] |  | 9 | 44 | 89 (N = 2, 0.5 mM) % | 247 | 89.2 | 98.1 | 10 |  |  | 50 (N = 2) % |  |  | 0 | 4 | >14 |  |  | 
CC[N+]1(CC)CCCC[C@@H]1CCN(c1ccccc1)C1Cc2ccccc2C1.[I-] [Example 11, (R)-1,1-Diethyl-2-[2-((indan-2-yl)(phenyl)amino)ethyl]piperidinium iodide] | 10 to 100 |  |  |  | 44 | 97.9 | 97.8 | 7 | 0 | 72% | 71 (N = 2) % |  |  |  |  |  |  |  | 
